Measured values as given in patent US20180193412A1, “Method of In Vivo Treatment” (Hexima Limited, priority 2015, published 2018).

Legend:
[1] = tested on: T. albicans; experiment: Inhibition of growth of C. albicans by plant defensins, Example 1 (microtitre A595 antifungal assay); format: cell-based; details: Table 3; ½ strength PDB, 30° C., A595
Experimental: The inhibitory effects of the plant defensins on the growth of Trichophyton rubrum, T. interdigitale, Microsporum fulvum and C. albicans (all obtained from the National Mycology Reference Centre, South Australia Pathology at the Women's and Children's Hospital, Adelaide, Australia) are measured essentially as described by Broekaert et al. (1990) FEMS Microbiol Lett 69:55-59.
Spores of T. rubrum, T. interdigitale and M. fulvum are isolated from sporulating fungus growing on ½ strength Sabouraud dextrose agar. Spores were removed from the plates by the addition of ½ strength potato dextrose broth (PDB). C. albicans cells are grown in Yeast Peptone Broth (YPD) for 16 h. Spore and cell concentrations are measured using a hemocytometer.
(§1) Antifungal assays are conducted in 96 well microtitre plates essentially as herein described. Wells are loaded with 20 μL of filter sterilized (0.22 Ξ m syringe filter, Millipore) defensin (10× stock for each final concentration) or water and 80 μL of 5×10^4 spores/mL (T. rubrum, T. interdigitale, M. fulvum) or 5,000 cells/mL (C. albicans) in ½ strength PDB. The plates are incubated at 30° C. Fungal growth is assayed by measuring optical density at 595 nm (A595) using a microtitre plate reader (SpectraMax Pro M2; Molecular Devices. Growth is allowed to proceed until the optical density (OD) of the fungus in the absence of any test defensin reached an OD of 0.2. Each test is performed in duplicate.

[2] = tested on: E. coli; format: cell-based, Escherichia coli
Experimental: A single E. coli or B. subtilis colony was used to inoculate 5 ml of Luria-Bertani media and grown overnight at 37° C. The following day, the optical density of the culture was measured and the bacteria diluted to an optical density at 600 nm (OD600) of 0.01 in Mueller-Hinton Broth. Diluted E. coli or B. subtilis were added to 96-well plates with defensins at concentrations of 20 μM, 10 μM, 5 μM, 2.5 μM, 1.25 μM, 0.625 μM or 0.3125 μM. Plates were read at OD595 to obtain time zero data points. Plates were incubated at 37° C. for 18 hours before reading again at OD595 to assess the amount of bacterial growth.

[3] = tested on: clinical isolates of T. rubrum; experiment: Cell survival assay for clinical isolates of T. rubrum (plating on agar after defensin treatment, FIG. 3); format: cell-based, Trichophyton rubrum
Experimental: FIG. 3(A) is a photographic representations of surviving colonies of T. rubrum clinical isolate 14-01 grown on agar plates after treatment with 100 μM HXL008 for 72 h.
FIG. 3(B) is a photographic representation of surviving colonies of T. rubrum clinical isolate 14-02 grown on agar plates after treatment with 100 μM HXL008 for 72 h.
FIG. 3(C) is a photographic representation of surviving colonies of T. rubrum clinical isolate 14-03 grown on agar plates after treatment with 100 μM HXL008 for 72 h.
FIG. 3(D) is a photographic representation of surviving colonies of T. rubrum clinical isolate 13-04 grown on agar plates after treatment with 100 μM HXL008 for 72 h.
After incubation for 72 h, the media from wells containing clinical isolates of T. rubrum incubated with 100 […] HXL008 was plated onto fresh Sabouraud dextrose agar. Plates were incubated at 30° C. for 5 days to allow colonies to develop before being photographed.

[4] = tested on: C. tropicalis; experiment: Inhibition of growth of C. tropicalis, Example 2 antifungal assay; format: cell-based; details: ½ strength PDB, 30° C., A595
Experimental: (§2) The inhibitory effects of the plant defensins on the growth of Candida albicans, Aspergillus fumigatus (obtained from the National Mycology Reference Centre, South Australia Pathology at the Women's and Children's Hospital, Adelaide, Australia), C. glabrata, C. tropicalis, A. flavus, A. niger, A. fumigants, Cryptococcus neoformans and C. gattii (obtained from Dee Carter, University of Sydney, New South Wales, Australia) are measured essentially as described by Broekaert et al. (1990) FEMS Microbiol Lett 69:55-59.
(§3) Spores of A. flavus. A. niger and A. fumigatus are isolated from sporulating fungus growing on ½ strength Sabouraud dextrose agar. Spores were removed from the plates by the addition of ½ strength potato dextrose broth (PDB). C. albicans, C. glabrata, C. tropicalis, C. neoformans and C. gattii cells are grown in Yeast Peptone Broth (YPD) for 16 h. Spore and cell concentrations are measured using a hemocytometer.
as §1, with “μm” for “Ξ m”, “(A. flavus, A. niger, A. fumigatus),” for “(T. rubrum, T. interdigitale, M. fulvum) or”, “albicans, C. glabrata, C. tropicalis) or 1×10^6 cells/mL (C. neoformans, C. gattii)” for “albicans)”

[5] = tested on: C. albicans; experiment: Inhibition of growth of Candida albicans, Example 2 antifungal assay; format: cell-based; details: Table 4; ½ strength PDB, 30° C., A595
Experimental: as §2, §3
as §1, with “μm” for “Ξ m”, “(A. flavus, A. niger, A. fumigatus),” for “(T. rubrum, T. interdigitale, M. fulvum) or”, “albicans, C. glabrata, C. tropicalis) or 1×10^6 cells/mL (C. neoformans, C. gattii)” for “albicans)”

[6] = tested on: A. fumigatus; experiment: Inhibition of growth of Aspergillus fumigatus, Example 2 antifungal assay; format: cell-based; details: ½ strength PDB, 30° C., A595
Experimental: as §2, §3
as §1, with “μm” for “Ξ m”, “(A. flavus, A. niger, A. fumigatus),” for “(T. rubrum, T. interdigitale, M. fulvum) or”, “albicans, C. glabrata, C. tropicalis) or 1×10^6 cells/mL (C. neoformans, C. gattii)” for “albicans)”

“HXL008: Class I plant defensin from Picramnia pentandra (KVCTKPSKFFKGLCGTDGACTTACRKEGLHSGYCQLKGFLNSVCVCRKHC; HXL008 Picramnia pentandra)” was tested, and the “IC50 against T. albicans” value [1] was 20 µg/mL, the IC50 ([2]; Mueller-Hinton Broth, 37° C., 18 hours, up to 20 μM, read-out: IC50 against E. coli) was over 20 µM and the “Inhibition of growth of E. coli” value ([2]; at the concentrations tested (0.3125-20 μM)) was “did not inhibit the growth”. The “Surviving colonies on agar plates after incubation with defensin” value ([3]; 100 µg/mL HXL008 for 72 h, plated, 30° C. for 5 days) was 1-3 colonies, the “Cell survival of T. rubrum clinical isolates” value ([3]; incubated with HXL008 for 72 h) was “almost all the cells were dead” and the “IC50 against C. tropicalis” value [4] was 7 µg/mL. The “IC50 against C. albicans” value [5] was 20 µg/mL and the “IC50 against A. fumigatus” value [6] was 7.5 µg/mL.
